# Reference: patent publication US9006188B2, “Co-crystals of dapagliflozin” (Mapi Pharma Ltd., priority 2013, dated 2015)
# Experiment: Hygroscopicity by Dynamic Vapor Sorption (DVS), sorption/desorption profile
# Type: physicochemical
# Conditions: for weight gain from 0 to 95% RH / Change In Mass (%) - ref, Desorption / Change In Mass (%) - ref, Sorption / Change In Mass (%) - ref, Hysteresis: DVS 25° C.; for hygroscopicity classification: based on DVS weight gain from 0 to 95% RH
# Protocol: The preparation of lactose co-crystal and asparagine co-crystal were scaled up and repeated (about 400 mg of dapagliflozin free form was dissolved in 26 ml of IPA) and XRPD, PLM, TGA, DSC, NMR and DVS analyses were conducted for physicochemical properties evaluation. Before physicochemical properties evaluation, the solids precipitated out were isolated and dried off at 40° C. for 4 hours in vacuum drier. After hygroscopicity test, the sample was retested by XRPD to determine if any form transformation during the DVS test.
# The sorption/desorption profiles of dapagliflozin Form I were tested at 25° C. under 0-95% relative humidity. […] This sample was tested by XRPD.
compound,measurement,setting,value
CCOc1ccc(Cc2cc(C3OC(CO)C(O)C(O)C3O)ccc2Cl)cc1.NC(=O)CC(N)C(=O)O (stereo not drawn) [Asparagine co-crystal],weight gain from 0 to 95% RH,,1.80%
same,"Change In Mass (%) - ref, Desorption","cycle 1, target 0.0 % P/Po",0.159%
same,"Change In Mass (%) - ref, Sorption","cycle 1, target 0.0 % P/Po",0.002%
same,"Change In Mass (%) - ref, Desorption","cycle 1, target 5.0 % P/Po",0.302%
same,"Change In Mass (%) - ref, Hysteresis","cycle 1, target 5.0 % P/Po",0.071%
same,"Change In Mass (%) - ref, Sorption","cycle 1, target 5.0 % P/Po",0.231%
same,"Change In Mass (%) - ref, Desorption","cycle 1, target 10.0 % P/Po",0.341%
same,"Change In Mass (%) - ref, Hysteresis","cycle 1, target 10.0 % P/Po",0.071%
same,"Change In Mass (%) - ref, Sorption","cycle 1, target 10.0 % P/Po",0.270%
same,"Change In Mass (%) - ref, Desorption","cycle 1, target 15.0 % P/Po",0.364%
same,"Change In Mass (%) - ref, Hysteresis","cycle 1, target 15.0 % P/Po",0.060%
same,"Change In Mass (%) - ref, Sorption","cycle 1, target 15.0 % P/Po",0.304%
same,"Change In Mass (%) - ref, Desorption","cycle 1, target 20.0 % P/Po",0.371%
same,"Change In Mass (%) - ref, Hysteresis","cycle 1, target 20.0 % P/Po",0.035%
same,"Change In Mass (%) - ref, Sorption","cycle 1, target 20.0 % P/Po",0.336%
same,"Change In Mass (%) - ref, Desorption","cycle 1, target 25.0 % P/Po",0.392%
same,"Change In Mass (%) - ref, Hysteresis","cycle 1, target 25.0 % P/Po",0.022%
same,"Change In Mass (%) - ref, Sorption","cycle 1, target 25.0 % P/Po",0.370%
same,"Change In Mass (%) - ref, Desorption","cycle 1, target 30.0 % P/Po",0.412%
same,"Change In Mass (%) - ref, Hysteresis","cycle 1, target 30.0 % P/Po",0.009%
same,"Change In Mass (%) - ref, Sorption","cycle 1, target 30.0 % P/Po",0.404%
same,"Change In Mass (%) - ref, Desorption","cycle 1, target 35.0 % P/Po",0.440%
same,"Change In Mass (%) - ref, Hysteresis","cycle 1, target 35.0 % P/Po",−0.006%
same,"Change In Mass (%) - ref, Sorption","cycle 1, target 35.0 % P/Po",0.446%
same,"Change In Mass (%) - ref, Desorption","cycle 1, target 40.0 % P/Po",0.474%
same,"Change In Mass (%) - ref, Hysteresis","cycle 1, target 40.0 % P/Po",−0.020%
same,"Change In Mass (%) - ref, Sorption","cycle 1, target 40.0 % P/Po",0.493%
same,"Change In Mass (%) - ref, Desorption","cycle 1, target 45.0 % P/Po",0.517%
same,"Change In Mass (%) - ref, Hysteresis","cycle 1, target 45.0 % P/Po",−0.026%
same,"Change In Mass (%) - ref, Sorption","cycle 1, target 45.0 % P/Po",0.542%
same,"Change In Mass (%) - ref, Desorption","cycle 1, target 50.0 % P/Po",0.565%
same,"Change In Mass (%) - ref, Hysteresis","cycle 1, target 50.0 % P/Po",−0.042%
same,"Change In Mass (%) - ref, Sorption","cycle 1, target 50.0 % P/Po",0.607%
same,"Change In Mass (%) - ref, Desorption","cycle 1, target 55.0 % P/Po",0.600%
same,"Change In Mass (%) - ref, Hysteresis","cycle 1, target 55.0 % P/Po",−0.073%
same,"Change In Mass (%) - ref, Sorption","cycle 1, target 55.0 % P/Po",0.673%
same,"Change In Mass (%) - ref, Desorption","cycle 1, target 60.0 % P/Po",0.650%
same,"Change In Mass (%) - ref, Hysteresis","cycle 1, target 60.0 % P/Po",−0.086%
same,"Change In Mass (%) - ref, Sorption","cycle 1, target 60.0 % P/Po",0.736%
same,"Change In Mass (%) - ref, Desorption","cycle 1, target 65.0 % P/Po",0.729%
same,"Change In Mass (%) - ref, Hysteresis","cycle 1, target 65.0 % P/Po",−0.057%
same,"Change In Mass (%) - ref, Sorption","cycle 1, target 65.0 % P/Po",0.786%
same,"Change In Mass (%) - ref, Desorption","cycle 1, target 70.0 % P/Po",0.794%
same,"Change In Mass (%) - ref, Hysteresis","cycle 1, target 70.0 % P/Po",−0.075%
same,"Change In Mass (%) - ref, Sorption","cycle 1, target 70.0 % P/Po",0.869%
same,"Change In Mass (%) - ref, Desorption","cycle 1, target 75.0 % P/Po",0.878%
same,"Change In Mass (%) - ref, Hysteresis","cycle 1, target 75.0 % P/Po",−0.078%
same,"Change In Mass (%) - ref, Sorption","cycle 1, target 75.0 % P/Po",0.956%
same,"Change In Mass (%) - ref, Desorption","cycle 1, target 80.0 % P/Po",1.031%
same,"Change In Mass (%) - ref, Hysteresis","cycle 1, target 80.0 % P/Po",−0.041%
same,"Change In Mass (%) - ref, Sorption","cycle 1, target 80.0 % P/Po",1.072%
same,"Change In Mass (%) - ref, Desorption","cycle 1, target 85.0 % P/Po",1.171%
same,"Change In Mass (%) - ref, Hysteresis","cycle 1, target 85.0 % P/Po",−0.030%
same,"Change In Mass (%) - ref, Sorption","cycle 1, target 85.0 % P/Po",1.201%
same,"Change In Mass (%) - ref, Desorption","cycle 1, target 90.0 % P/Po",1.378%
same,"Change In Mass (%) - ref, Hysteresis","cycle 1, target 90.0 % P/Po",−0.019%
same,"Change In Mass (%) - ref, Sorption","cycle 1, target 90.0 % P/Po",1.397%
same,"Change In Mass (%) - ref, Desorption","cycle 1, target 95.0 % P/Po",1.798%
same,"Change In Mass (%) - ref, Sorption","cycle 1, target 95.0 % P/Po",1.798%
same,hygroscopicity classification,,slightly hygroscopic
CCOc1ccc(Cc2cc(C3OC(CO)C(O)C(O)C3O)ccc2Cl)cc1.OCC1OC(OC2C(CO)OC(O)C(O)C2O)C(O)C(O)C1O (stereo not drawn) [lactose co-crystal],weight gain from 0 to 95% RH,,2.16%
same,"Change In Mass (%) - ref, Desorption","cycle 1, target 0.0 % P/Po",0.077%
same,"Change In Mass (%) - ref, Sorption","cycle 1, target 0.0 % P/Po",0.000%
same,"Change In Mass (%) - ref, Desorption","cycle 1, target 5.0 % P/Po",0.104%
same,"Change In Mass (%) - ref, Hysteresis","cycle 1, target 5.0 % P/Po",0.083%
same,"Change In Mass (%) - ref, Sorption","cycle 1, target 5.0 % P/Po",0.021%
same,"Change In Mass (%) - ref, Desorption","cycle 1, target 10.0 % P/Po",0.120%
same,"Change In Mass (%) - ref, Hysteresis","cycle 1, target 10.0 % P/Po",0.078%
same,"Change In Mass (%) - ref, Sorption","cycle 1, target 10.0 % P/Po",0.042%
same,"Change In Mass (%) - ref, Desorption","cycle 1, target 15.0 % P/Po",0.136%
same,"Change In Mass (%) - ref, Hysteresis","cycle 1, target 15.0 % P/Po",0.073%
same,"Change In Mass (%) - ref, Sorption","cycle 1, target 15.0 % P/Po",0.064%
same,"Change In Mass (%) - ref, Desorption","cycle 1, target 20.0 % P/Po",0.151%
same,"Change In Mass (%) - ref, Hysteresis","cycle 1, target 20.0 % P/Po",0.066%
same,"Change In Mass (%) - ref, Sorption","cycle 1, target 20.0 % P/Po",0.085%
same,"Change In Mass (%) - ref, Desorption","cycle 1, target 25.0 % P/Po",0.170%
same,"Change In Mass (%) - ref, Hysteresis","cycle 1, target 25.0 % P/Po",0.063%
same,"Change In Mass (%) - ref, Sorption","cycle 1, target 25.0 % P/Po",0.107%
same,"Change In Mass (%) - ref, Desorption","cycle 1, target 30.0 % P/Po",0.188%
same,"Change In Mass (%) - ref, Hysteresis","cycle 1, target 30.0 % P/Po",0.058%
same,"Change In Mass (%) - ref, Sorption","cycle 1, target 30.0 % P/Po",0.131%
same,"Change In Mass (%) - ref, Desorption","cycle 1, target 35.0 % P/Po",0.213%
same,"Change In Mass (%) - ref, Hysteresis","cycle 1, target 35.0 % P/Po",0.053%
same,"Change In Mass (%) - ref, Sorption","cycle 1, target 35.0 % P/Po",0.160%
same,"Change In Mass (%) - ref, Desorption","cycle 1, target 40.0 % P/Po",0.238%
same,"Change In Mass (%) - ref, Hysteresis","cycle 1, target 40.0 % P/Po",0.036%
same,"Change In Mass (%) - ref, Sorption","cycle 1, target 40.0 % P/Po",0.201%
same,"Change In Mass (%) - ref, Desorption","cycle 1, target 45.0 % P/Po",0.266%
same,"Change In Mass (%) - ref, Hysteresis","cycle 1, target 45.0 % P/Po",0.022%
same,"Change In Mass (%) - ref, Sorption","cycle 1, target 45.0 % P/Po",0.244%
same,"Change In Mass (%) - ref, Desorption","cycle 1, target 50.0 % P/Po",0.296%
same,"Change In Mass (%) - ref, Hysteresis","cycle 1, target 50.0 % P/Po",0.013%
same,"Change In Mass (%) - ref, Sorption","cycle 1, target 50.0 % P/Po",0.283%
same,"Change In Mass (%) - ref, Desorption","cycle 1, target 55.0 % P/Po",0.330%
same,"Change In Mass (%) - ref, Hysteresis","cycle 1, target 55.0 % P/Po",0.007%
same,"Change In Mass (%) - ref, Sorption","cycle 1, target 55.0 % P/Po",0.323%
same,"Change In Mass (%) - ref, Desorption","cycle 1, target 60.0 % P/Po",0.366%
same,"Change In Mass (%) - ref, Hysteresis","cycle 1, target 60.0 % P/Po",0.003%
same,"Change In Mass (%) - ref, Sorption","cycle 1, target 60.0 % P/Po",0.363%
same,"Change In Mass (%) - ref, Desorption","cycle 1, target 65.0 % P/Po",0.410%
same,"Change In Mass (%) - ref, Hysteresis","cycle 1, target 65.0 % P/Po",0.000%
same,"Change In Mass (%) - ref, Sorption","cycle 1, target 65.0 % P/Po",0.409%
same,"Change In Mass (%) - ref, Desorption","cycle 1, target 70.0 % P/Po",0.465%
same,"Change In Mass (%) - ref, Hysteresis","cycle 1, target 70.0 % P/Po",0.000%
same,"Change In Mass (%) - ref, Sorption","cycle 1, target 70.0 % P/Po",0.466%
same,"Change In Mass (%) - ref, Desorption","cycle 1, target 75.0 % P/Po",0.531%
same,"Change In Mass (%) - ref, Hysteresis","cycle 1, target 75.0 % P/Po",−0.004%
same,"Change In Mass (%) - ref, Sorption","cycle 1, target 75.0 % P/Po",0.534%
same,"Change In Mass (%) - ref, Desorption","cycle 1, target 80.0 % P/Po",0.618%
same,"Change In Mass (%) - ref, Hysteresis","cycle 1, target 80.0 % P/Po",−0.004%
same,"Change In Mass (%) - ref, Sorption","cycle 1, target 80.0 % P/Po",0.622%
same,"Change In Mass (%) - ref, Desorption","cycle 1, target 85.0 % P/Po",0.768%
same,"Change In Mass (%) - ref, Hysteresis","cycle 1, target 85.0 % P/Po",0.005%
same,"Change In Mass (%) - ref, Sorption","cycle 1, target 85.0 % P/Po",0.762%
same,"Change In Mass (%) - ref, Desorption","cycle 1, target 90.0 % P/Po",1.081%
same,"Change In Mass (%) - ref, Hysteresis","cycle 1, target 90.0 % P/Po",0.069%
same,"Change In Mass (%) - ref, Sorption","cycle 1, target 90.0 % P/Po",1.012%
same,"Change In Mass (%) - ref, Desorption","cycle 1, target 95.0 % P/Po",2.162%
same,"Change In Mass (%) - ref, Sorption","cycle 1, target 95.0 % P/Po",2.162%
same,hygroscopicity classification,,hygroscopic
